Patent publication US6818226B2, “Dermal penetration enhancers and drug delivery systems involving same” (ACRUX DDS Pty. Ltd., priority 1996, dated 2004)

Legend:
[1] = Testosterone penetration across dermatomed neonate porcine skin in vitro (Example 6); type: in vitro ADME; details: control, no enhancer; 12% w/v testosterone in absolute ethanol
From the text: (§1) Degassing was repeated three times.

[2] = Testosterone flux across shed snake skin, finite dose 5 microL/cm^2 (Example 10); details: control, no enhancer, 12% w/v testosterone in absolute ethanol
Method: Dermatol., 94; 235-240, 1990.
as §1
The volume of each formulation applied to the skin was 5 microL/cm^2. Each formulation contained 12% w/v testosterone in absolute ethanol. The dose was applied with a GC syringe.
Samples were assayed for testosterone by HPLC as shown before in Example 6.

[3] = Testosterone clearance after intravenous bolus in pigs (Example 13); type: in vivo, domestic weanling pig; details: pig, plasma, bolus dose of intravenous testosterone
[4] = in vivo, Bartek et al. 1972; cited from earlier work

C[C@]12CC[C@H]3[C@@H](CCC4=CC(=O)CC[C@@]43C)[C@@H]1CC[C@@H]2O [testosterone]
mean amount of testosterone penetrated after 4 hours [1]: 4 ± 1 μg/cm^2 | mean amount of testosterone penetrated after 24 hours [1]: 13 ± 2 μg/cm^2 | Mean flux +/− std error of testosterone [2]: 0.70 +/− 0.03 microg/cm^2.h | clearance [3]: 11.1 mL/min/kg | permeability in human skin compared with pig skin, fold lower [4]: 2.2 fold
